Test results as given in US20210386367A1, “DEVICES AND SYSTEMS FOR GASTROINTESTINAL MICROBIOME DETECTION AND MANIPULATION” (Progenity, Inc., priority 2018, published 2021).
Values after ≈ are worked out from the molar mass of the structure shown.

Columns and labels:
[1] = tested on: Streptococcus spp. spontaneous mutants; details: S. pneumoniae ATCC 49619; CLSI QC range shown in parentheses; cited from earlier work
[2] = tested on: Bacteroides spp. spontaneous mutants; experiment: Broth microdilution MIC of spontaneous mutants; format: cell-based
Experimental: (§1) Select isolates were subcultured onto agar containing drug at the selection concentration, were identified by MALDI, and were frozen for broth microdilution MIC testing as described below.
(§2) To determine whether colonies growing on drug selection plates had elevated MIC values to the selecting antibiotic, susceptibility testing by broth microdilution was conducted on isolated mutants following methodology recommended by CLSI (1), (2), and (3) “Performance Standards for Antimicrobial Susceptibility Testing; Twenty-Eighth Informational Supplement.,” CLSI document M100-S28, 2018.
(§3) All wells in columns 2 through 12 of a standard 96-well microdilution plate (Costar 3795) were filled with 150 μL of the appropriate diluent. Then, 300 μL of the test agents were added to the wells of column 1 of the plates at […] the highest final concentration to be tested. Serial two-fold dilutions were made across the rows through column 11 using the Biomek 2000. The wells of column 12 contained no drug and served as the growth control wells. This plate served as the “mother plate” from which selected MIC assay plates or “daughter plates” were made.
Daughter plates for anaerobic organisms were transferred to a Bactron II anaerobic chamber (Sheldon Manufacturing Inc., Cornelius, Oreg.) to reduce for 1 hour prior to inoculation. The inoculum for each organism was prepared in the anaerobic chamber and dispensed into sterile disposable reservoirs. Inoculation was completed using a multichannel pipette to transfer 10 μL of the inoculum into each well of the daughter plate. This yielded a final cell concentration in the daughter plates of approximately 1×10^6 CFU/mL.

[3] = tested on: Streptococcus spp. spontaneous mutants; experiment: organism not typed; format: cell-based
Experimental: as §1, §2, §3
2 μL of drug solution from each well of a mother plate was added to each corresponding well of the daughter plate in a single step. A standardized inoculum of each aerobic test organism was prepared per CLSI methods to equal a 0.5 McFarland standard, followed by a dilution of 1:20 in MHB II. The plates were then inoculated with 10 μL of the diluted inoculum using the Biomek 2000 from low to high drug concentration, resulting in a final concentration of approximately 5×10^5 CFU/mL. An un-inoculated plate was incubated for the purpose of assessing solubility of the drug in the test media.
The plates for the aerobic tests were stacked 3-4 high, covered with a sterile lid on the top plate, and incubated aerobically at 35° C. for 18-20 hr. The MIC was recorded as the lowest concentration of drug that inhibited visible growth of the organism.

[4] = tested on: Staphylococcus aureus; experiment: Broth microdilution MIC, 50 clinical isolates (28 MRSA); format: cell-based
Experimental: (§4) Minimal inhibitory concentration (MIC) values were determined by broth microdilution or agar dilution in accordance with guidelines from the Clinical and Laboratory Standards Institute (CLSI; (1) “Methods for Dilution Antimicrobial Susceptibility Tests for Bacteria That Grow Aerobically; Approved Standard; 11th ed.” CLSI standard M07-A11, 2018; (2) “Performance Standards for Antimicrobial Susceptibility Testing; Twenty-Eighth Informational Supplement,” CLSI document M100-S28, 2018; and (3) “Methods for Antimicrobial Susceptibility Testing of Anaerobic Bacteria; Approved Standard—Eighth Edition,” CLSI document M11-A8, 2012).
(§5) Tested aerobically by broth microdilution: • Escherichia coli, n=50 • Klebsiella spp., n=50 • Pseudomonas aeruginosa, n=50 • Streptococcus spp., n=50 • Staphylococcus aureus, n=50 • Enterococcus faecalis, n=50 • Enterobacter aerogenes, n=50 • Proteus mirabilis, n=50
(§6) Broth microdilution testing of aerobic bacteria was conducted in cation-adjusted Mueller Hinton broth (MHBII). For testing streptococci, lysed horse blood (LHB) was added to MHBII broth at a final concentration of 3%. Where LHB was used, it was added after filtering.
(§7) Broth microdilution susceptibility testing in 96-well microplates was conducted in accordance with CLSI methods (1) and (2). Automated liquid handlers were used to conduct serial dilutions and liquid transfers, including the Multidrop 384 (Labsystems, Helsinki, Finland), Biomek 2000, and the Biomek FX (Beckman Coulter, Fullerton, Calif.). All wells in columns 2 through 12 of a standard 96-well microdilution plate (Costar 3795) were filled with 150 μL of the appropriate diluent. Then, 300 μL of the test agents were added to the wells of column 1 of the plates at 100× the highest final concentration to be tested. Serial two-fold dilutions were made across the rows through column 11 using the Biomek 2000. The wells of column 12 contained no drug and served as the growth control wells. This plate served as the “mother plate” from which MIC assay plates or “daughter plates” were made.
(§8) The daughter plates were loaded with 190 μL per well of the appropriate medium using the Multidrop 384. The daughter plates were created using the Biomek FX which transferred 2 μL of drug solution from each well of a mother plate to each corresponding well of the daughter plate in a single step. A standardized inoculum of each test organism was prepared per CLSI methods (1) to equal a 0.5 McFarland standard, followed by a dilution of 1:20 for aerobes and 1:10 for anaerobes. The plates were then inoculated with 10 μL of the diluted inoculum using the Biomek 2000 from low to high drug concentration, resulting in a final concentration of approximately 5×10^5 CFU/mL per well. An un-inoculated plate was incubated in parallel for each medium for the purpose of assessing solubility of the drug in the test media.
(§9) Inoculated plates were stacked 3 or 4 high, covered with a sterile lid on the top plate, placed into boxes with CO2 planchets (streptococci) or plastic bags (all other isolates). Plates were incubated at 35° C. for 16-24 hr in ambient air for aerobes or for 42-48 hr in the anaerobic environment of the Bactron II anaerobe chamber (Sheldon Manufacturing Co.; Cornelius, Oreg.). Following incubation, the microplates were removed from the incubator and viewed from the bottom using a plate viewer. The MIC values were read and recorded as the lowest concentration of drug that inhibited visible growth of the organism as per CLSI methods (1) and (2).

[5] = tested on: Enterococcus faecalis; experiment: Broth microdilution MIC, 50 clinical isolates; format: cell-based
Experimental: as §4, §5, §6, §7, §8, §9

[6] = tested on: Enterococcus faecalis clinical isolates; experiment: MIC distribution against clinical isolates; format: cell-based; details: 50 E. faecalis isolates
From the text: (§10) As used herein, “minimum inhibitory concentration” or “MIC” refers to the lowest concentration of an antimicrobial agent, for example, an antimicrobial agent as described herein, required to inhibit the growth of an organism.
(§11) Many susceptibility testing methods are known in the art and can be used as described herein (see, e.g., Jorgensen and Ferraro (2009) Clinical Infectious Diseases 49:1749-1755; and Maurer et al. (2017) Infectious Disease Reports 9:6839; the entire contents of each of the foregoing are incorporated herein by reference). For example, antimicrobial susceptibility can be determined using conventional culture based methods such as the broth or agar dilution test. In these dilution tests, the bacterial isolate of interest is inoculated onto different media that include serial dilutions of an antimicrobial agent, and incubated under appropriate conditions (e.g., overnight at 37° C.) to allow for growth to occur. Following the incubation period, the media is examined to determine bacterial growth. The lowest concentration of antibiotic that prevents growth represents the minimal inhibitory concentration (MIC). Broth dilution tests can be miniaturized and mechanized allowing for reproducibility and high throughput.

[7] = tested on: Staphylococcus aureus clinical isolates; experiment: MIC distribution against clinical isolates; format: cell-based; details: 50 S. aureus isolates
From the text: as §10, §11

SMILES: CCC[C@@H]1C[C@@H](C(=O)N[C@@H]([C@H]2O[C@H](SC)[C@H](O)[C@@H](O)[C@H]2O)[C@H](C)Cl)N(C)C1 [CLIN]
- MIC, CLSI QC range [1]: (0.03-0.12) μg/mL
- MIC ([2]; B. fragilis ATCC 25285, selected on rifaximin 4X MIC, Colony A): 0.5 µg/mL
- MIC ([2]; B. fragilis ATCC 25285, selected on rifaximin 4X MIC, Colony B): 0.5 µg/mL
- MIC ([2]; B. fragilis ATCC 25285, selected on rifaximin 8X MIC, Colony A): 0.5 µg/mL
- MIC ([2]; B. fragilis ATCC 25285, selected on rifaximin 8X MIC, Colony B): 0.5 µg/mL
- MIC ([2]; B. fragilis ATCC 25285 Parent): 0.25 µg/mL
- MIC ([2]; B. ovatus MMX 3503, selected on rifaximin 4X MIC, Colony A): 1 µg/mL
- MIC ([2]; B. ovatus MMX 3503, selected on rifaximin 4X MIC, Colony B): 1 µg/mL
- MIC ([2]; B. ovatus MMX 3503, selected on rifaximin 8X MIC, Colony A): 0.5 µg/mL
- MIC ([2]; B. ovatus MMX 3503, selected on rifaximin 8X MIC, Colony B): 1 µg/mL
- MIC ([2]; B. ovatus MMX 3503 Parent): 0.5 µg/mL
- MIC ([2]; B. vulgatus ATCC 8482, selected on ceftriaxone 4X MIC, Colony A): 0.25 µg/mL
- MIC ([2]; B. vulgatus ATCC 8482, selected on ceftriaxone 4X MIC, Colony B): 0.25 µg/mL
- MIC ([2]; B. vulgatus ATCC 8482, selected on rifaximin 4X MIC, Colony A): 0.25 µg/mL
- MIC ([2]; B. vulgatus ATCC 8482, selected on rifaximin 4X MIC, Colony B): 0.12 µg/mL
- MIC ([2]; B. vulgatus ATCC 8482, selected on rifaximin 8X MIC, Colony A): 0.12 µg/mL
- MIC ([2]; B. vulgatus ATCC 8482, selected on rifaximin 8X MIC, Colony B): 0.25 µg/mL
- MIC ([2]; B. vulgatus ATCC 8482 Parent (Table 50)): 0.25 µg/mL
- MIC ([2]; B. vulgatus ATCC 8482 Parent (Table 54)): 0.25 µg/mL
- MIC ([3]; S. agaloctiae ATCC 13813, selected on rifaximin 4X MIC, Colony A): 0.03 µg/mL (≈ 0.0706 µM)
- MIC ([3]; S. agaloctiae ATCC 13813, selected on rifaximin 4X MIC, Colony B): 0.03 µg/mL (≈ 0.0706 µM)
- MIC ([3]; S. agaloctiae ATCC 13813, selected on rifaximin 8X MIC, Colony A): 0.03 µg/mL (≈ 0.0706 µM)
- MIC ([3]; S. agaloctiae ATCC 13813, selected on rifaximin 8X MIC, Colony B): 0.03 µg/mL (≈ 0.0706 µM)
- MIC ([3]; S. agaloctiae ATCC 13813 Parent): 0.015 µg/mL (≈ 0.0353 µM)
- MIC ([3]; S. pneumoniae ATCC 49619, selected on rifaximin 4X MIC, Colony A): 0.03 µg/mL (≈ 0.0706 µM)
- MIC ([3]; S. pneumoniae ATCC 49619, selected on rifaximin 4X MIC, Colony B): 0.03 µg/mL (≈ 0.0706 µM)
- MIC ([3]; S. pneumoniae ATCC 49619, selected on rifaximin 8X MIC, Colony A): 0.03 µg/mL (≈ 0.0706 µM)
- MIC ([3]; S. pneumoniae ATCC 49619, selected on rifaximin 8X MIC, Colony B): 0.03 µg/mL (≈ 0.0706 µM)
- MIC ([3]; S. pneumoniae ATCC 49619 Parent): 0.06 µg/mL (≈ 0.141 µM)
- MIC ([3]; S. pyogenes ATCC 49399, selected on rifaximin 4X MIC, Colony A): 0.03 µg/mL (≈ 0.0706 µM)
- MIC ([3]; S. pyogenes ATCC 49399, selected on rifaximin 4X MIC, Colony B): 0.03 µg/mL (≈ 0.0706 µM)
- MIC ([3]; S. pyogenes ATCC 49399, selected on rifaximin 8X MIC, Colony A): 0.03 µg/mL (≈ 0.0706 µM)
- MIC ([3]; S. pyogenes ATCC 49399, selected on rifaximin 8X MIC, Colony B): 0.03 µg/mL (≈ 0.0706 µM)
- MIC ([3]; S. pyogenes ATCC 49399 Parent): 0.03 µg/mL (≈ 0.0706 µM)

SMILES: Cc1onc(-c2ccccc2)c1C(=O)N[C@@H]1C(=O)N2[C@@H]1SC(C)(C)[C@@H]2C(=O)O [oxacillin, Oxacillin]
- % R [4]: 56%
- % S [4]: 44%
- Mode [4]: >16 µg/mL
- MIC50 ([4]; Staphylococcus aureus, read-out: MIC50): 8 µg/mL (≈ 19.9 µM)
- MIC90 ([4]; Staphylococcus aureus, read-out: MIC90): > 16 µg/mL
- Mode [5]: >16 µg/mL
- MIC50 ([5]; Enterococcus faecalis, read-out: MIC50): 16 µg/mL (≈ 39.9 µM)
- MIC90 ([5]; Enterococcus faecalis, read-out: MIC90): > 16 µg/mL
- Cumulative percentage of isolates inhibited at MIC ([6]; MIC 2 μg/mL): 2.0%
- Number of test isolates at MIC ([6]; MIC 2 μg/mL): 1
- Cumulative percentage of isolates inhibited at MIC ([6]; MIC 8 μg/mL): 16.0%
- Number of test isolates at MIC ([6]; MIC 8 μg/mL): 7
- Cumulative percentage of isolates inhibited at MIC ([6]; MIC 16 μg/mL): 54.0%
- Number of test isolates at MIC ([6]; MIC 16 μg/mL): 19
- Cumulative percentage of isolates inhibited at MIC ([6]; MIC >16 μg/mL): 100.0%
- Number of test isolates at MIC ([6]; MIC >16 μg/mL): 23
- Cumulative percentage of isolates inhibited at MIC ([7]; MIC 0.5 μg/mL): 28.0%
- Number of test isolates at MIC ([7]; MIC 0.5 μg/mL): 10
- Cumulative percentage of isolates inhibited at MIC ([7]; MIC 1 μg/mL): 42.0%
- Number of test isolates at MIC ([7]; MIC 1 μg/mL): 7
- Cumulative percentage of isolates inhibited at MIC ([7]; MIC 2 μg/mL): 44.0%
- Number of test isolates at MIC ([7]; MIC 2 μg/mL): 1
- Cumulative percentage of isolates inhibited at MIC ([7]; MIC 4 μg/mL): 48.0%
- Number of test isolates at MIC ([7]; MIC 4 μg/mL): 2
- Cumulative percentage of isolates inhibited at MIC ([7]; MIC 8 μg/mL): 50.0%
- Number of test isolates at MIC ([7]; MIC 8 μg/mL): 1
- Cumulative percentage of isolates inhibited at MIC ([7]; MIC >16 μg/mL): 100.0%
- Number of test isolates at MIC ([7]; MIC >16 μg/mL): 25
- Cumulative percentage of isolates inhibited at MIC ([7]; MIC […]): 8.0%
- Number of test isolates at MIC ([7]; MIC […]): 4
